The values that follow come from ChEMBL document CHEMBL1649202, “Temporal trends of antimicrobial resistance and clonality of invasive Streptococcus pneumoniae isolates in Finland, 2002 to 2006” (2009).

Each structure is given as a SMILES string. Converted amounts (≈) assume the structure as drawn. A value given as a limit tells only on which side of the number the result lay.

Format in all cases: functional
For assay [1], the system named is Streptococcus pneumoniae. In words: Antimicrobial activity against Streptococcus pneumoniae serotype 9V ST 156 harboring ERY-resistant erm(B) or mef(E) gene by agar plate dilution method.
Assay [2] deals with Streptococcus pneumoniae. In words: Antimicrobial activity against Streptococcus pneumoniae serotype 14 ST 156 harboring ERY-resistant mef(E) gene by agar plate dilution method.
The test system of assay [3] is Streptococcus pneumoniae. In words: Antimicrobial activity against Streptococcus pneumoniae serotype 19F ST 156 by agar plate dilution method.
Assay [4] has as its system Streptococcus pneumoniae. Kind of assay: Antimicrobial activity against Streptococcus pneumoniae serotype 14 ST 2918 by agar plate dilution method.
The subject of assay [5] is Streptococcus pneumoniae. Kind of assay: Antimicrobial activity against Streptococcus pneumoniae serotype 14 ST 2306 harboring ERY-resistant erm(B) gene by agar plate dilution method.
Assay [6] has as its system Streptococcus pneumoniae. In words: Antimicrobial activity against Streptococcus pneumoniae serotype 14 ST 3247 by agar plate dilution method.
For assay [7], the system named is Streptococcus pneumoniae. In words: Antimicrobial activity against Streptococcus pneumoniae serotype 14 ST 143 harboring ERY-resistant erm(B) gene by agar plate dilution method.
Assay [8] concerns Streptococcus pneumoniae. Kind of assay: Antimicrobial activity against Streptococcus pneumoniae serotype 14 ST 2916 harboring ERY-resistant erm(B) gene by agar plate dilution method.
Assay [9] concerns Streptococcus pneumoniae. In words: Antimicrobial activity against Streptococcus pneumoniae serotype 19F ST 671 by agar plate dilution method.
The subject of assay [10] is Streptococcus pneumoniae. Kind of assay: Antimicrobial activity against Streptococcus pneumoniae serotype 19F ST 236 by agar plate dilution method.
Assay [11] deals with Streptococcus pneumoniae. In words: Antimicrobial activity against Streptococcus pneumoniae serotype 19F ST 271 harboring ERY-resistant erm(B) and mef(E) gene by agar plate dilution method.
In assay [12] the test system is Streptococcus pneumoniae. Kind of assay: Antimicrobial activity against Streptococcus pneumoniae serotype 19F ST 2694 harboring ERY-resistant mef(E) gene by agar plate dilution method.
In assay [13] the test system is Streptococcus pneumoniae. Kind of assay: Antimicrobial activity against Streptococcus pneumoniae serotype 19F ST 2917 harboring ERY-resistant erm(B) and mef(E) gene by agar plate dilution method.
For assay [14], the system named is Streptococcus pneumoniae. Kind of assay: Antimicrobial activity against Streptococcus pneumoniae serotype 19F ST 3245 by agar plate dilution method.
Assay [15] has as its system Streptococcus pneumoniae. In words: Antimicrobial activity against Streptococcus pneumoniae serotype 23F ST 81 harboring ERY-resistant mef(E) gene by agar plate dilution method.
Assay [16] deals with Streptococcus pneumoniae. Kind of assay: Antimicrobial activity against Streptococcus pneumoniae serotype 23F ST 961 harboring ERY-resistant erm(B) gene by agar plate dilution method.
Assay [17] has as its system Streptococcus pneumoniae. In words: Antimicrobial activity against Streptococcus pneumoniae serotype 23F ST 3250 by agar plate dilution method.
Assay [18] has as its system Streptococcus pneumoniae. In words: Antimicrobial activity against Streptococcus pneumoniae serotype 6B ST 90 harboring ERY-resistant erm(B) gene by agar plate dilution method.
The test system of assay [19] is Streptococcus pneumoniae. Kind of assay: Antimicrobial activity against Streptococcus pneumoniae serotype 6B ST 3246 harboring ERY-resistant erm(B) gene by agar plate dilution method.
Assay [20] relates to Streptococcus pneumoniae. Kind of assay: Antimicrobial activity against Streptococcus pneumoniae serotype 14 ST 13 harboring ERY-resistant mef(E) gene by agar plate dilution method.
Assay [21] deals with Streptococcus pneumoniae. Kind of assay: Antimicrobial activity against Streptococcus pneumoniae serotype 14 ST 2678 harboring ERY-resistant erm(B) gene by agar plate dilution method.
The test system of assay [22] is Streptococcus pneumoniae. Kind of assay: Antimicrobial activity against Streptococcus pneumoniae serotype 18C ST 496 harboring ERY-resistant erm(B) gene by agar plate dilution method.
The test system of assay [23] is Streptococcus pneumoniae. In words: Antimicrobial activity against Streptococcus pneumoniae serotype 4 ST 205 by agar plate dilution method.
The subject of assay [24] is Streptococcus pneumoniae. Kind of assay: Antimicrobial activity against Streptococcus pneumoniae serotype 6B ST 138 by agar plate dilution method.
The subject of assay [25] is Streptococcus pneumoniae. In words: Antimicrobial activity against Streptococcus pneumoniae serotype 10 ST 461 by agar plate dilution method.
Assay [26] deals with Streptococcus pneumoniae. In words: Antimicrobial activity against Streptococcus pneumoniae serotype 17 ST 3248 by agar plate dilution method.
For assay [27], the system named is Streptococcus pneumoniae. Kind of assay: Antimicrobial activity against Streptococcus pneumoniae serotype 6B ST 3249 by agar plate dilution method.

On to `CC1(C)S[C@@H]2[C@H](NC(=O)Cc3ccccc3)C(=O)N2[C@H]1C(=O)O` [PENICILLIN G], for which the minimal inhibitory concentration (MIC) with Streptococcus pneumoniae [1], in the assay with Streptococcus pneumoniae [2], against Streptococcus pneumoniae [3], in the assay on Streptococcus pneumoniae [4], with Streptococcus pneumoniae [5] and in the assay on Streptococcus pneumoniae [6] was 2 µg/mL (≈ 5.98 µM) each time. The MIC with Streptococcus pneumoniae [7], in the assay on Streptococcus pneumoniae [8], in the assay with Streptococcus pneumoniae [9], with Streptococcus pneumoniae [10], in the assay on Streptococcus pneumoniae [11] (read-out: MIC) and with Streptococcus pneumoniae [12] was 2 µg/mL (≈ 5.98 µM) throughout. For the same compound, the minimal inhibitory concentration (MIC) came out at 2 µg/mL (≈ 5.98 µM) against Streptococcus pneumoniae [13]; 4 µg/mL (≈ 12 µM) against Streptococcus pneumoniae [14]; 2 µg/mL (≈ 5.98 µM) against Streptococcus pneumoniae [15]; 2 µg/mL (≈ 5.98 µM) in the assay with Streptococcus pneumoniae [16]; 2 µg/mL (≈ 5.98 µM) against Streptococcus pneumoniae [17]; 2 µg/mL (≈ 5.98 µM) with Streptococcus pneumoniae [18]. Further, the MIC with Streptococcus pneumoniae [19] was determined as 2 µg/mL (≈ 5.98 µM); against Streptococcus pneumoniae [20], 2 µg/mL (≈ 5.98 µM); against Streptococcus pneumoniae [21], 2 µg/mL (≈ 5.98 µM); in the assay with Streptococcus pneumoniae [22] (read-out: MIC), 2 µg/mL (≈ 5.98 µM); against Streptococcus pneumoniae [23], 2 µg/mL (≈ 5.98 µM); in the assay with Streptococcus pneumoniae [24], 4 µg/mL (≈ 12 µM). The MIC in the assay with Streptococcus pneumoniae [25], in the assay on Streptococcus pneumoniae [26] and against Streptococcus pneumoniae [27] was 2 µg/mL (≈ 5.98 µM) each time.

Turning to `CC[C@H]1OC(=O)[C@H](C)[C@@H](O[C@H]2C[C@@](C)(OC)[C@@H](O)[C@H](C)O2)[C@H](C)[C@@H](O[C@@H]2O[C@H](C)C[C@H](N(C)C)[C@H]2O)[C@](C)(O)C[C@@H](C)C(=O)[C@H](C)[C@@H](O)[C@]1(C)O` [ERYTHROMYCIN], the minimal inhibitory concentration (MIC) was > 0.063 µg/mL against Streptococcus pneumoniae [1]; 0.125 µg/mL (≈ 0.17 µM) against Streptococcus pneumoniae [2]; 0.125 µg/mL (≈ 0.17 µM) against Streptococcus pneumoniae [3]; > 128 µg/mL against Streptococcus pneumoniae [4]; > 128 µg/mL with Streptococcus pneumoniae [6]; 32 µg/mL (≈ 43.6 µM) against Streptococcus pneumoniae [9]. The MIC was 8 µg/mL (≈ 10.9 µM) against Streptococcus pneumoniae [10]; > 128 µg/mL in the assay with Streptococcus pneumoniae [11]; 8 µg/mL (≈ 10.9 µM) with Streptococcus pneumoniae [12]; > 128 µg/mL against Streptococcus pneumoniae [14]; 0.125 µg/mL (≈ 0.17 µM) against Streptococcus pneumoniae [15]; > 128 µg/mL in the assay with Streptococcus pneumoniae [17]. Besides, the minimal inhibitory concentration (MIC) in the assay with Streptococcus pneumoniae [20] is 16 µg/mL (≈ 21.8 µM); against Streptococcus pneumoniae [22], > 128 µg/mL; in the assay on Streptococcus pneumoniae [23] it was 32 µg/mL (≈ 43.6 µM); in the assay with Streptococcus pneumoniae [24], 16 µg/mL (≈ 21.8 µM); with Streptococcus pneumoniae [25], > 128 µg/mL; in the assay on Streptococcus pneumoniae [26] it was > 128 µg/mL. For the same compound, the MIC against Streptococcus pneumoniae [27] is > 128 µg/mL.

`CN(C)[C@@H]1C(O)=C(C(N)=O)C(=O)[C@@]2(O)C(O)=C3C(=O)c4c(O)cccc4[C@@](C)(O)[C@H]3C[C@@H]12` [TETRACYCLINE]: the minimal inhibitory concentration (MIC) against Streptococcus pneumoniae [1] came out at 0.25 µg/mL (≈ 0.563 µM); in the assay with Streptococcus pneumoniae [2] it was 0.25 µg/mL (≈ 0.563 µM); against Streptococcus pneumoniae [3], 0.25 µg/mL (≈ 0.563 µM); with Streptococcus pneumoniae [4], 0.5 µg/mL (≈ 1.13 µM); against Streptococcus pneumoniae [7], 0.25 µg/mL (≈ 0.563 µM); against Streptococcus pneumoniae [9], 0.5 µg/mL (≈ 1.13 µM). The minimal inhibitory concentration (MIC) with Streptococcus pneumoniae [11] (read-out: MIC) turned out to be 16 µg/mL (≈ 36 µM); against Streptococcus pneumoniae [15], 1 µg/mL (≈ 2.25 µM); against Streptococcus pneumoniae [16] it was 0.25 µg/mL (≈ 0.563 µM); with Streptococcus pneumoniae [17], 16 µg/mL (≈ 36 µM); with Streptococcus pneumoniae [18], 0.5 µg/mL (≈ 1.13 µM); with Streptococcus pneumoniae [20], 0.25 µg/mL (≈ 0.563 µM). Further, the MIC worked out at 0.25 µg/mL (≈ 0.563 µM) in the assay with Streptococcus pneumoniae [22] (read-out: MIC), 1 µg/mL (≈ 2.25 µM) with Streptococcus pneumoniae [23] and 0.25 µg/mL (≈ 0.563 µM) in the assay with Streptococcus pneumoniae [24].

The term MIC denotes the lowest concentration that inhibits growth of the organism.
